From US8088791B2, “Antibacterial agents” (Biots Scientific Management Pty Ltd, priority 2006, dated 2012)
Values after ≈ are worked out from the molar mass of the structure shown. Where two headings read alike, the source gives them in different places.

Experiments:
Bacillus subtilis 168CA = test: Minimum Inhibitory Concentration (MIC) testing, broth microdilution, Bacillus subtilis; format: cell-based; settings: for MIC: read-out: Bacillus subtilis MICs Activity
Method in brief: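 MICs were scored A (≦8 μg/ml), B (16–64 μg/ml) or C (>64 μg/ml), read as the lowest concentration preventing visible growth by eye and spectrophotometry. Plates incubated overnight (16–20 h) at 37 °C, inoculum OD 0.09 diluted 1:100 in 2× broth, per NCCLS guidelines.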

[1] = system: Staphylococcus aureus ATCC29213; test: Minimum Inhibitory Concentration (MIC) testing, broth microdilution, Staphylococcus aureus; format: cell-based
Method in brief: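 Broth microdilution per NCCLS M7-A5 in Mueller Hinton broth, with compound in 1.6% DMSO and inoculum at OD 0.09 diluted 1:100. Plates incubated 16–20 h at 37°C. MIC is the lowest concentration with no visible growth; scored A ≤8, B 16–64, C >64 μg/ml.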

[2] = Staphylococcus aureus ATCC29213, read-out: Staphylococcus aureus MICs Activity

Structure (SMILES) | MIC (Bacillus subtilis 168CA; Bacillus subtilis 168CA) | MIC [1, 2] | further results
NC(=O)c1c(F)ccc(OCCn2cccn2)c1F [Example 144, 2,6-Difluoro-3-(2-pyrazol-1-yl-ethoxy) benzamide] | – | – | Bacillus subtilis MICs Activity (Bacillus subtilis 168CA; Bacillus subtilis 168CA): C (‘C’ if the MIC was greater than 64 micrograms/ml); Staphylococcus aureus MICs Activity ([1]; Staphylococcus aureus ATCC29213): C (‘C’ if the MIC was greater than 64 micrograms/ml)
Cc1noc(C)c1-c1nc(COc2ccc(F)c(C(N)=O)c2F)no1 [Example 145, 3-[5-(3,5-Dimethyl-isoxazol-4-yl)-[1,2,4]oxadiazol-3-ylmethoxy]-2,6-difluoro-benzamide] | 16 to 64 µg/mL (≈ 45.7 to 183 µM) | > 64 µg/mL | –
NC(=O)c1c(F)ccc(OCc2noc(C=Cc3ccccc3)n2)c1F [Example 149, 2,6-Difluoro-3-(5-styryl-[1,2,4]oxadiazol-3-ylmethoxy)-benzamide] | < 8 µg/mL | 16 to 64 µg/mL (≈ 44.8 to 179 µM) | –
NC(=O)c1c(F)ccc(OCc2noc(-c3ccsc3)n2)c1F [Example 150, 2,6-Difluoro-3-(5-thiophen-3-yl-[1,2,4]oxadiazol-3-ylmethoxy)-benzamide] | < 8 µg/mL | 16 to 64 µg/mL (≈ 47.4 to 190 µM) | –
NC(=O)c1c(F)ccc(OCc2nnc(-c3cccs3)o2)c1F [Example 152, 2,6-Difluoro-3-(5-thiophen-2-yl-[1,3,4]oxadiazol-2-ylmethoxy)-benzamide] | 16 to 64 µg/mL (≈ 47.4 to 190 µM) | 16 to 64 µg/mL (≈ 47.4 to 190 µM) | –
COc1ccc(-c2nc(COc3ccc(F)c(C(N)=O)c3F)sc2-c2nccs2)cc1 [Example 155, 2,6-Difluoro-3-[4′-(4-methoxy-phenyl)-[2,5′]bithiazolyl-2′-ylmethoxy]-benzamide] | < 8 µg/mL | < 8 µg/mL | –
NC(=O)c1c(F)ccc(OCc2cccc(-n3cccc3)c2)c1F [Example 161, 2,6-Difluoro-3-(3-pyrrol-1-yl-benzyloxy)-benzamide] | < 8 µg/mL | < 8 µg/mL | –
NC(=O)c1c(F)ccc(OCc2cccc(Oc3ccccc3)c2)c1F [Example 162, 2,6-Difluoro-3-(3-phenoxy-benzyloxy)-benzamide] | < 8 µg/mL | < 8 µg/mL | –
NC(=O)c1c(F)ccc(OCc2cc(-c3ccccc3)on2)c1F [Example 163, 2,6-Difluoro-3-(5-phenyl-isoxazol-3-ylmethoxy)-benzamide] | < 8 µg/mL | < 8 µg/mL | –
COc1ccc(-c2nc(COc3ccc(F)c(C(N)=O)c3F)sc2-c2cncs2)cc1 [Example 164, 2,6-Difluoro-3-[4-(4-methoxy-phenyl)-[5,5′]bithiazolyl-2-ylmethoxy]-benzamide] | – | – | MIC (Bacillus subtilis 168CA; Bacillus subtilis, 168CA): < 8 µg/mL; MIC ([1]; Staphylococcus aureus, ATCC29213, read-out: Staphylococcus aureus MICs Activity): < 8 µg/mL
CCCCCCOc1cccc(C(N)=O)c1F [Example 165, 2-Fluoro-3-Hexoxy-benzamide] | < 8 µg/mL | < 8 µg/mL | –
CCCCCCOc1cccc(C(N)=O)c1O [Example 166, 2-Hydroxy-3-Hexoxy-benzamide] | > 64 µg/mL | > 64 µg/mL | –
CCCCCCOc1cc(F)cc(C(N)=O)c1 [Example 167, 3-Fluoro-5-hexyloxy benzamide] | 16 to 64 µg/mL (≈ 66.9 to 267 µM) | 16 to 64 µg/mL (≈ 66.9 to 267 µM) | –
NC(=O)c1cccc(OCn2cccn2)c1 [Example 168, 3-(Pyrazol-1-ylmethoxy)-benzamide] | > 64 µg/mL | > 64 µg/mL | –
NC(=O)c1cccc(OCc2cccc(Br)c2)c1 [Example 171, 3-[(3-Bromobenzyl)oxy]benzenecarboxamide] | 16 to 64 µg/mL (≈ 52.3 to 209 µM) | 16 to 64 µg/mL (≈ 52.3 to 209 µM) | –
CC(=O)Oc1cccc(COc2cccc(C(N)=O)c2)c1 [Example 172, 3-[3-(Aminocarbonyl)phenoxy]methylphenyl acetate] | > 64 µg/mL | > 64 µg/mL | –
CCCCCCOc1nccc(C(N)=O)c1Cl [Example 174, 3-Chloro-2-(hexyloxy)isonicotinamide] | 16 to 64 µg/mL (≈ 62.3 to 249 µM) | 16 to 64 µg/mL (≈ 62.3 to 249 µM) | –
CCCCOC(=O)COc1cccc(C(N)=O)c1F [Example 176, Butyl 2-[3-(aminocarbonyl)-2-fluorophenoxy]acetate] | < 8 µg/mL | 16 to 64 µg/mL (≈ 59.4 to 238 µM) | –
NC(=O)c1c(F)ccc(OCCCCO)c1F [Example 178, 2,6-Difluoro-3-(4-hydroxybutoxy)benzenecarboxamide] | 16 to 64 µg/mL (≈ 65.2 to 261 µM) | 16 to 64 µg/mL (≈ 65.2 to 261 µM) | –
NC(=O)c1c(F)ccc(OCc2ccco2)c1F [Example 183, 2,6-Difluoro-3-(2-furylmethoxy)benzenecarboxamide] | 16 to 64 µg/mL (≈ 63.2 to 253 µM) | 16 to 64 µg/mL (≈ 63.2 to 253 µM) | –
NC(=O)c1c(F)ccc(OCc2ccoc2)c1F [Example 184, 2,6-Difluoro-3-(3-furylmethoxy)benzenecarboxamide] | 16 to 64 µg/mL (≈ 63.2 to 253 µM) | 16 to 64 µg/mL (≈ 63.2 to 253 µM) | –
NC(=O)c1c(F)ccc(OCc2cncs2)c1F [Example 189, 2,6-Difluoro-3-(1,3-thiazol-5-ylmethoxy)benzenecarboxamide] | > 64 µg/mL | > 64 µg/mL | –
Cn1ccnc1COc1ccc(F)c(C(N)=O)c1F [Example 194, 2,6-Difluoro-3-[(1-methyl-1H-imidazol-2-yl)methoxy]benzenecarboxamide] | > 64 µg/mL | > 64 µg/mL | –

More lines, main results first:

MIC (Bacillus subtilis 168CA; Bacillus subtilis 168CA) | MIC [1, 2] | Structure (SMILES) | further results
< 8 µg/mL | 16 to 64 µg/mL (≈ 48.7 to 195 µM) | Cc1cccc2ccc(COc3ccc(F)c(C(N)=O)c3F)nc12 [Example 146, 2,6-Difluoro-3-(8-methyl-quinolin-2-ylmethoxy)-benzamide] | –
16 to 64 µg/mL (≈ 54.2 to 217 µM) | 16 to 64 µg/mL (≈ 54.2 to 217 µM) | Cc1cc(COc2ccc(F)c(C(N)=O)c2F)ccc1F [Example 147, 2,6-Difluoro-3-(4-fluoro-3-methyl-benzyloxy)-benzamide] | –
< 8 µg/mL | < 8 µg/mL | Cc1ccc2sc(COc3ccc(F)c(C(N)=O)c3F)nc2c1 [Example 148, 2,6-Difluoro-3-(5-methyl-benzothiazol-2-ylmethoxy)-benzamide] | –
< 8 µg/mL | 16 to 64 µg/mL (≈ 40.7 to 163 µM) | NC(=O)c1c(F)ccc(OCc2ccc3c(Br)cccc3n2)c1F [Example 151, 3-(5-Bromo-quinolin-2-ylmethoxy)-2,6-difluoro-benzamide] | –
< 8 µg/mL | < 8 µg/mL | NC(=O)c1c(F)ccc(OCc2nc(-c3cccs3)no2)c1F [Example 153, 2,6-Difluoro-3-(3-thiophen-2-yl-[1,2,4]oxadiazol-5-ylmethoxy)-benzamide] | –
< 8 µg/mL | < 8 µg/mL | NC(=O)c1c(F)ccc(OCc2nc3cc(Cl)ncc3s2)c1F [Example 156, 3-(6-Chloro-thiazolo[5,4-c]pyridin-2-ylmethoxy)-2,6-difluoro-benzamide] | –
< 8 µg/mL | < 8 µg/mL | NC(=O)c1c(F)ccc(OCc2nc3cc(-c4ccccc4O)ccc3s2)c1F [Example 157, 2,6-Difluoro-3-[5-(2-hydroxy-phenyl)-benzothiazol-2-ylmethoxy]-benzamide] | –
< 8 µg/mL | < 8 µg/mL | COc1ccc(-c2nc(COc3ccc(F)c(C(N)=O)c3F)sc2Br)cc1 [Example 158, 3-[5-Bromo-4-(4-methoxy-phenyl)-thiazol-2-ylmethoxy]-2,6-difluoro-benzamide] | –
< 8 µg/mL | < 8 µg/mL | NC(=O)c1c(F)ccc(OCc2nc(-c3ccc(Cl)cc3)c(Br)s2)c1F [Example 159, 3-[5-Bromo-4-(4-chloro-phenyl)-thiazol-2-ylmethoxy]-2,6-difluoro-benzamide] | –
> 64 µg/mL | > 64 µg/mL | Cc1cc(COc2ccc(F)c(C(N)=O)c2F)no1 [Example 182, 2,6-Difluoro-3-[(5-methyl-3-isoxazolyl)methoxy]benzenecarboxamide] | –
> 64 µg/mL | > 64 µg/mL | Cc1ccc(COc2ccc(F)c(C(N)=O)c2F)o1 [Example 185, 2,6-Difluoro-3-[(5-methyl-2-furyl)methoxy]benzenecarboxamide] | –
< 8 µg/mL | 16 to 64 µg/mL (≈ 59.4 to 238 µM) | NC(=O)c1c(F)ccc(OCc2cccs2)c1F [Example 186, 2,6-Difluoro-3-(2-thienylmethoxy)benzenecarboxamide] | –
16 to 64 µg/mL (≈ 56.5 to 226 µM) | 16 to 64 µg/mL (≈ 56.5 to 226 µM) | Cc1csc(COc2ccc(F)c(C(N)=O)c2F)c1 [Example 187, 2,6-Difluoro-3-[(4-methyl-2-thienyl)methoxy]benzenecarboxamide] | –
16 to 64 µg/mL (≈ 59.4 to 238 µM) | 16 to 64 µg/mL (≈ 59.4 to 238 µM) | NC(=O)c1c(F)ccc(OCc2ccsc2)c1F [Example 188, 2,6-Difluoro-3-(3-thienylmethoxy)benzenecarboxamide] | –
16 to 64 µg/mL (≈ 56.3 to 225 µM) | 16 to 64 µg/mL (≈ 56.3 to 225 µM) | Cc1nc(COc2ccc(F)c(C(N)=O)c2F)cs1 [Example 190, 2,6-Difluoro-3-[(2-methyl-1,3-thiazol-4-yl)methoxy]benzenecarboxamide] | –
16 to 64 µg/mL (≈ 59.2 to 237 µM) | 16 to 64 µg/mL (≈ 59.2 to 237 µM) | NC(=O)c1c(F)ccc(OCc2nccs2)c1F [Example 191, 2,6-Difluoro-3-(1,3-thiazol-2-ylmethoxy)benzenecarboxamide] | –
> 64 µg/mL | > 64 µg/mL | Cc1cnc(COc2ccc(F)c(C(N)=O)c2F)s1 [Example 192, 2,6-Difluoro-3-[(5-methyl-1,3-thiazol-2-yl)methoxy]benzenecarboxamide] | –
16 to 64 µg/mL (≈ 56.3 to 225 µM) | 16 to 64 µg/mL (≈ 56.3 to 225 µM) | Cc1csc(COc2ccc(F)c(C(N)=O)c2F)n1 [Example 193, 2,6-Difluoro-3-[(4-methyl-1,3-thiazol-2-yl)methoxy]benzenecarboxamide] | –
< 8 µg/mL | 16 to 64 µg/mL (≈ 57.7 to 231 µM) | Cc1cccc(COc2ccc(F)c(C(N)=O)c2F)c1 [Example 195, 2,6-Difluoro-3-[(3-methylbenzyl)oxy]benzenecarboxamide] | –
< 8 µg/mL | 16 to 64 µg/mL (≈ 52.1 to 208 µM) | CCOc1cccc(COc2ccc(F)c(C(N)=O)c2F)c1 [Example 196, 3-[(3-Ethoxybenzyl)oxy]-2,6-difluorobenzenecarboxamide] | –
16 to 64 µg/mL (≈ 57.5 to 230 µM) | 16 to 64 µg/mL (≈ 57.5 to 230 µM) | Cc1cccc(COc2ccc(F)c(C(N)=O)c2F)n1 [Example 197, 2,6-Difluoro-3-[(6-methyl-2-pyridinyl)methoxy]benzenecarboxamide] | –
